Assay results taken from patent US20220160703A1, “TUMOR-SELECTIVE COMBINATION THERAPY” (The Board of Regents of The University of Texas System, priority 2019, published 2022).

Key:
[1] = tested on: NQO1 negative cell lines Panc02 and B16; assay: Cell viability/survival of NQO1 negative murine tumor lines (SRB); type: cell-based; details: β-lap 0-8 μM, SRB 4 days later
Method: (FIG. 1A) NQO1 positive tumor cell lines MC38, TC-1 and Ag104Ld and NQO1 negative cell lines Panc02 and B16 grown in 48-well plates were treated with β-lap (0-8 μM) for a 3 hr followed by washing and replacing medium. Cell viability was determined by Sulforhodamine B (SRB) Assay 4 days later. […] (FIG. 1C) MC38 cells with CRISPR-based NQO1 Knockout (MC38 NQO1KO #5) planted in 96-well plates were exposed to β-lap for 3 hr and cell survival was assessed 48 hr later. […] (FIG. 1E) MC38 cells were exposed to a lethal dose of β-lap (4 μM) for indicated times, then stained with 7-AAD and Annexin V followed by flow cytometry analysis. […] (FIG. 1H) MC38 and B16 NQO1 #1 cells were exposed to β-lap for a 3 hr. Catalase (1000 U/ml) was added and cell survival was assessed 48 hr later. […] Tumor growth was monitored twice a week.
(FIG. 8A) NQO1 expression in multiple murine tumor lines was immunoblotted as indicated. […] Drugs were removed and survival assessed 5 days later. (FIG. 8C) Relative H2O2 levels were assessed in various cells treated with β-lap for 3 h at the indicated doses using CellRox-Glo. […] (FIG. 8D) TC-1 cells exposure to β-lap for 12 h, later PARP-1 and Caspase-3 levels were analyzed by western blotting assay. […]
(FIGS. 14A-C) NQO1 cells MC38 (A) and TC-1 (B) and NQO1^− cells B16 (C) were treated for 2 h with various doses of IB-DNQ±DIC (50 μM). Drugs were removed and survival assessed 6 days later. […]

[2] = tested on: A549 tumor; assay: A549 xenograft in NSG-SGM3 humanized mouse model; type: in vivo, mice; details: Hu-NSG-SGM3 versus NSG-SGM3, β-lap 0.2 mg i.t. four times
Method: FIGS. 2A-F. β-Lap's antitumor effect is CD8^+ T cell dependent. (FIG. 2A) MC38 cells were subcutaneously transplanted into C57BL/6 WT (n=5-6/group) and Rag1 KO mice (n=5/group), respectively. Tumor bearing mice were treated with β-lap (0.3 mg, i.t.) every other day for four times. Numbers of tumor free mice after treatment were shown. (FIG. 2B) MC38 tumor bearing C57BL/6 mice (n=5/group) were treated with β-lap (0.3 mg, i.t.) every other day for four times. For CD8^+ T cell depletion, 200 μg of anti-CD8 antibodies were intraperitoneally injected four times at three days interval during the treatment. […] (FIG. 2D) Naïve (n=5/group) and β-lap cured MC38 tumor free (n=7/group) C57BL/6 mice were rechallenged subcutaneously with 3×10^6 MC38 cells on the opposite site from the primary tumor 30 days after complete rejection, and tumor growth curve was monitored. […] Tumor growth was measured twice a week. Data are shown as mean±SEM from three independent experiments. **P<0.01, ***P<0.001, ****P<0.0001 determined by two-way ANOVA.
For NSG-SGM3 humanized mouse model, four-week-old NSG-SGM3 female mice were irradiated with 100 cGy (X-ray irradiation with X-RAD 320 irradiator) one day prior to human CD34+ cells transfer. […] Tumor volumes were measured at least twice weekly. […]

CC1(C)CCC2=C(O1)c1ccccc1C(=O)C2=O [β-lap, β-lapachone]
response to 3 h β-lap exposure (cell viability) [1]: resistant | tumor control in presence of human immune system [2]: much better tumor control
